Measured values: patent publication US11541084B2, “Method of promoting bone regrowth” (GENMONT BIOTECH INC., priority 2017, dated 2023)

Tests used:
Format in all cases: in vivo, mice (ICR female)
osteocalcin gene = assay: Real-time PCR of bone cDNA from OVX mice: osteocalcin expression; conditions: bone RNA of OVX mice after 28 days of tube feed; compared with disease group (OVX+H2O)
Protocol: (§1) 8-week-old ICR female rats were purchased from BioLASCO Taiwan and ovariectomy was performed when they were 9 week-old. Mice were underwent anesthesia and were ovariectomized through back on both sides of the ovaries. All groups were given the test substance by means of tube feed at 4 days after surgery. The groups were divided into a sham operation group (control group, their abdominal cavity were cut but their ovaries were not removed); and 4 groups ovariectomized group (Ovariectomy; OVX). When the mice were sacrificed, the ovarian tissues were checked and confirmed whether the removal of ovarian was successful. The experimental results of the mice under failure operation were not used. […]
(§2) Extraction of tibial RNA: The left femur of the mice were removed, cut into small pieces with scissor, and an appropriate amount of liquid nitrogen was added to grind the bones quickly. […] The solution was placed at room temperature to react for 5 minutes, followed by centrifugalized and extracted the upper layer to new microcentrifuge tubes (eppendorf); 0.25 ml isopropanol was added thereto and the solution was placed at room temperature for 10 minutes and then centrifugalized; the supernatant was removed and the precipitate was washed with 0.5 ml 75% ethanol; after the precipitate was dried, 20-50 μl DEPC water was added to dissolve the precipitate and the RNA concentration was measured. […]

[1] = test system: ovariectomized (OVX) mice; assay: Bone tissue analysis by micro computed tomography of the femur in the osteoporosis mouse model; conditions: right femur, tube feed for 28 days, mean ±SD
Protocol: Experiment 1: Bone tissue analysis
(§3) (1) preparation of viable bacteria: Inoculating the Lactobacillus plantarum GMNL-662 from a frozen tube to 1 ml of MRS broth, and standing under 37° C. for aerobically incubating for 20 hours. The next day, adding 15 μl culture solution into 1.5 ml of MRS broth (1% secondary activation), and then standing under 37° C. for aerobically incubating for 20 hours. Estimating the bacteria number by using OD 600 to adjust the bacteria concentration to 8×10^7 CFU/ml.
as §3, with “(2)” for “(1)”, “dead” for “viable”, “Plantarum strain” for “plantarum”, “4.1×10^8” for “8×10^7”
8-week-old ICR female […] were purchased from BioLASCO Taiwan and ovariectomy was performed when they were 9 week-old. Mice were underwent anesthesia and were ovariectomized through back on both sides of the ovaries. All groups were given the test substance by means of tube feed at 4 days after surgery. The groups were divided into a sham operation group (control group, their abdominal cavity were cut but their ovaries were not removed); and 4 groups ovariectomized group (Ovariectomy; OVX). When the mice were sacrificed, the ovarian tissues were checked and confirmed whether the removal of ovarian was successful. The experimental results of the mice under failure operation were not used. […] The mice were given 0.1 ml per 10 grams of body weight and 4 times a week. The remaining two groups were fed with 0.2 ml of alive GMNL-662 (strain concentration is 8×10^7 cfu/ml; daily dose of the mouse is 1.6×10^7 cfu/mouse, the human dose is 4×10^9 cfu/60 kg adult), and 0.2 ml of dead GMNL-662 (strain concentration is 4.1×10^8 cfu/ml; daily dose of the mouse is 8.2×10^7 cells/mouse, the human dose is 2×10^10 cells/60 kg adult). The two groups were fed with tube one time every day, continued for 28 days, the mice were anesthetized and sacrificed for intraperitoneal cephalic vein sampling, and each femur was removed for analysis.
The backbone of the right femur far from the end was taken a computer tomography by a micro computed tomography (SkyScan 1076, Kontizh, Belgium, with resolution of 18 μm), and the trabecular bone volume ratio (i.e. bone volume/tissue volume) is analyzed by a software. The analyzed position was selected to include the area of 100 pieces under the growth plate excluding cortical bone. The bone mineral density analysis was applied to the same area. The obtained data in the experiments were analyzed with two-way analysis of variance, and executed T-test statistical analysis. All data were presented as mean ±SD. After comparisons, the abovementioned groups were analyzed statistically and noted by different marks to represent the statistically significant differences (* represents p<0.05; ** represents p<0.01).

[2] = test system: osteoclast related gene TRAP-5; assay: Real-time PCR of bone cDNA from OVX mice: TRAP-5 expression; conditions: bone RNA of OVX mice after 28 days of tube feed; compared with disease group (OVX+H2O)
Protocol: as §1, §2

cytokine TGF-β = assay: Real-time PCR of bone cDNA from OVX mice: TGF-β expression; conditions: bone RNA of OVX mice after 28 days of tube feed; compared with disease group (OVX+H2O)
Protocol: as §1, §2

[3] = * p<0.05, ** p<0.01, disease group OVX+H2O 0.344 ± 0.04, sham control 0.502 ± 0.04
[4] = * p<0.05, ** p<0.01, disease group OVX+H2O 30.9 ± 1.1, sham control 42.12 ± 2.4

Substance: Lactobacillus plantarum strain GMNL-662 [GMNL-662 alive]
- expression of osteocalcin gene, FIG. 2 (osteocalcin gene): higher than the disease group
- Femur bone mineral density (BMD, excluding cortical bone) [1, 3]: 0.488 ± 0.02** g/cm^3
- Femur bone mineral density (BMD, excluding cortical bone) ([1]; * p<0.05, ** p<0.01, disease group OVX+H2O 0.344 ± 0.04, sham control 0.502 ± 0.04, listed as alive GMNL-662): significantly higher
- Trabecular bone volume ratio (BV/TV, bone volume/tissue volume) [1, 4]: 36.92 ± 1.7** %
- Trabecular bone volume ratio (BV/TV, bone volume/tissue volume) ([1]; * p<0.05, ** p<0.01, disease group OVX+H2O 30.9 ± 1.1, sham control 42.12 ± 2.4, listed as alive GMNL-662): higher than the disease group
- expression of osteoclast related gene TRAP-5, FIG. 3 [2]: significantly lower
- expression of cytokine TGF-β (relative to GAPDH), FIG. 1 (cytokine TGF-β): significant increased expression

Substance: Lactobacillus plantarum strain GMNL-662 [GMNL-662 dead]
- expression of osteocalcin gene, FIG. 2 (osteocalcin gene): higher than the disease group
- Femur bone mineral density (BMD, excluding cortical bone) [1, 3]: 0.474 ± 0.01** g/cm^3
- Femur bone mineral density (BMD, excluding cortical bone) ([1]; * p<0.05, ** p<0.01, disease group OVX+H2O 0.344 ± 0.04, sham control 0.502 ± 0.04, listed as dead GMNL-662): significantly higher
- Trabecular bone volume ratio (BV/TV, bone volume/tissue volume) [1, 4]: 36.8 ± 1.2** %
- Trabecular bone volume ratio (BV/TV, bone volume/tissue volume) ([1]; * p<0.05, ** p<0.01, disease group OVX+H2O 30.9 ± 1.1, sham control 42.12 ± 2.4, listed as dead GMNL-662): higher than the disease group
- expression of osteoclast related gene TRAP-5, FIG. 3 [2]: significantly lower
- expression of cytokine TGF-β (relative to GAPDH), FIG. 1 (cytokine TGF-β): significant increased expression
